Test results reported in patent publication US20210198685A1, “PLANTS CONTAINING ELITE EVENT EE-GM4 AND METHODS AND KITS FOR IDENTIFYING SUCH EVENT IN BIOLOGICAL SAMPLES, AND TREATMENT THEREOF” (priority 2018, published 2021).

System: soybean plants containing event EE-GM4
Assay: HPPD inhibitor herbicide tolerance field trials on soybean plants containing EE-GM4
Type: in vivo, Glycine max
Conditions: for average maximum phytotoxicity: plants with EE-GM4; for tolerance / crop damage of plants with EE-GM4, herbicide applied post-emergence / tolerance of plants with EE-GM4 to herbicide applied pre-emergence: field, 2 years; for tolerance / crop damage of plants with EE-GM4, herbicide applied post-emergence: post-emergence at V2-V3 stage with crop oil concentrate and ammonium sulfate, 2x dose (210 gr/ha); for tolerance of plants with EE-GM4 to herbicide applied pre-emergence: 4x dose (420 gr/ha IFT, 840 gr/ha mesotrione)
Excerpt: Numbers in ( ) below a treatment give the number of trials included in the bar, the number on top of each bar gives the average maximum phytotoxicity value for that treatment. Treatments applied were: IFT=isoxaflutole, MST=mesotrione, PE=pre-emergence, PO=post-emergence (at V2-V3 stage, with adjuvants crop oil concentrate and ammonium sulfate added to increase herbicide activity). Rates shown are in gram active ingredient/hectare (4× dose in pre-emergence, 2× dose in post-emergence).
Tolerance of plants comprising EE-GM4 to HPPD inhibitor herbicides was tested at different locations in the field over 2 years. […] All post-emergence treatments were at the V2-V3 stage, with adjuvants crop oil concentrate and ammonium sulfate added to increase herbicide activity.
The “maximum phytotoxicity” as used herein is the highest phytotoxicity rating recorded at any observation during the duration of a trial (with 3 to 4 observations per trial). In existing weed control applications, a normal (1×) dose for isoxaflutole (IFT) in pre- or post-emergence application and for MST in post-emergence application is 105 gr/ha, and a normal (1×) dose for mesotrione in pre-emergence application is 210 gr/ha.
Also, in several field trials across 2 years, soybean plants with event EE-GM4 had good tolerance towards experimental HPPD inhibitor compound 2-methyl-N-(5-methyl-1,3,4-oxadiazol-2-yl)-3-(methylsulfonyl)-4-(trifluoromethyl)benzamide (U.S. Pat. No. 9,101,141) when applied pre-emergence at 400 gr ai/ha or post-emergence at 200 gr ai/ha, respectively (the average maximum phytotoxicity value for each treatment was below 20%). […] All post-emergence treatments were at the V2-V3 stage, with adjuvants crop oil concentrate and ammonium sulfate added to increase herbicide activity.

SMILES	average maximum phytotoxicity (post-emergence at 100-150 gr ai/ha, V2-V3 stage with adjuvants)	average maximum phytotoxicity (post-emergence at 200 gr ai/ha, V2-V3 stage with adjuvants)	average maximum phytotoxicity (pre-emergence at 400 gr ai/ha, field trials across 2 years)	tolerance / crop damage of plants with EE-GM4, herbicide applied post-emergence	tolerance of plants with EE-GM4 to herbicide applied pre-emergence
CSc1c(C(F)(F)F)ccc(C(=O)Nc2nnnn2C)c1Cl [2-chloro-3-(methylsulfanyl)-N-(1-methyl-1H-tetrazol-5-yl)-4-(trifluoromethyl)benzamide]	30%				
Cc1nnc(NC(=O)c2ccc(C(F)(F)F)c(S(C)(=O)=O)c2C)o1 [2-methyl-N-(5-methyl-1,3,4-oxadiazol-2-yl)-3-(methylsulfonyl)-4-(trifluoromethyl)benzamide]		below 20%	below 20%		
CS(=O)(=O)c1cc(C(F)(F)F)ccc1C(=O)c1cnoc1C1CC1 [isoxaflutole, (5-cyclopropyl-4-isoxazolyl)[2-(methylsulfonyl)-4-(trifluoromethyl)phenyl]methanone]				crop damage was a bit higher	commercially relevant tolerance
CS(=O)(=O)c1ccc(C(=O)C2C(=O)CCCC2=O)c([N+](=O)[O-])c1 [mesotrione, 2-[4-(Methylsulfonyl)-2-nitrobenzoyl]cyclohexane-1,3-dione]				commercially relevant tolerance	commercially relevant tolerance
